Test results reported in US9605047B2, “Compositions and methods for treating hypertension” (The Brigham and Women's Hospital, Inc., priority 2012, dated 2017).
Where a chain is given by its changes, count along the chain named. Numbers in names are those of the source. Entries after “also recorded” stand apart in the source; their conditions may differ.

Experiments:
[1] = test system: rats with SU-5416/hypoxia-induced PAH; assay: SU-5416/hypoxia-induced PAH, prevention study with eplerenone; type: in vivo, rat; conditions: SU-5416 (20 mg/kg s.c.) plus chronic hypoxia 21 days vs normal rats; n=5
HPAECs [2] = assay: Amplex Red assay of hydrogen peroxide levels in HPAECs; type: cell-based, human; conditions: ET-1 10 nM, HPAECs; p=0.43, n=4
Experimental: Human pulmonary artery endothelial cells (HPAECs) (Lonza) (male donors) were grown to confluence using phenol-free EGM-2 medium supplemented with 5% fetal bovine serum at 37° C., 5% CO2. Cells were passaged twice-weekly using 0.5% trypsin/EDTA, and experiments were performed on cells from passages 4-10. Aldosterone (Steraloids) and ET-1 (1-100 nM) (Sigma-Aldrich) were dissolved in dimethylsufloxide (10 nmol/L) and deoxygenated water, respectively, which served as vehicle controls. Cells were treated with aldosterone (10^−−10^−7 mol/L) for 24 h and in selected experiments co-incubated with the mineralocorticoid receptor inhibitor spironolactone (10 μM/l) (Sigma-Aldrich).

CYP11B2 promoter = assay: Chromatin immunoprecipitation assay, CYP11B2 promoter; type: cell-based, human; conditions: ET-1 10 nM, 24 h; vs V 16.3±9.8; n=3
Experimental: Chromatin immunoprecipitation assay. Chromatin immunoprecipitation assays were performed using the QuikChIP assay (Imgenex) according to the manufacturer's instructions. PCR amplification was performed on the proximal region of the CYP11B2 promoter region containing the gonadotrope-specific element ^51. The primers used were: forward 5′-[…]-3′ (SEQ ID NO:2) and reverse 5′-[…]-3′ (SEQ ID NO: 3). CYP11B2 primers used for PCR were forward: 5′ […]-3′ (SEQ ID NO: 4) and reverse: 5′-[…]-3′ (SEQ ID NO:5).

[3] = test system: CYP11B2 (aldosterone synthase); assay: CYP11B2 protein expression in HPAECs by Western analysis; type: cell-based, human; conditions: 24 h, n=3
Experimental: (§1) Cell culture and treatments. Human pulmonary artery endothelial cells (HPAECs) (Lonza) (male donors) were grown to confluence using phenol-free EGM-2 medium supplemented with 5% fetal bovine serum at 37° C., 5% CO2. Cells were passaged twice-weekly using 0.5% trypsin/EDTA, and experiments were performed on cells from passages 4-10. Aldosterone (Steraloids) and ET-1 (1-100 nM) (Sigma-Aldrich) were dissolved in dimethylsufloxide ([…]) and deoxygenated water, respectively, which served as vehicle controls. Cells were treated with aldosterone (10^−−10^−7 mol/L) for 24 h and in selected experiments co-incubated with the mineralocorticoid receptor inhibitor spironolactone (10 μM/l) (Sigma-Aldrich).
(§2) Immunoblotting. Proteins were size fractionated electrophoretically using SDS-PAGE and transferred to polyvinylidene fluoride membranes. The membranes were incubated with anti-ETA (Santa Cruz Biotechnology), anti-ETB (Santa Cruz Biotechnology), anti-NOX4 (Santa Cruz Biotechnology), anti-p22P^phox (Santa Cruz), anti-eNOS (Cell Signaling), anti-PGC-1α (Santa Cruz Biotechnology), and anti-SF (Santa Cruz Biotechnology) antibodies overnight at 4° C. and visualized using the ECL detection system (Amersham Biosciences). In experiments to assess ETA expression, purified ETA protein (Novus Biological) was loaded to serve as an internal control.

[4] = test system: ETB-dependent NO. generation in HPAECs; assay: NO. metabolites (NO2−, NO3−) in ET-1-stimulated HPAECs; type: cell-based, human
Experimental: Cell culture and treatments. Human pulmonary artery endothelial cells (HPAECs) (Lonza) (male donors) were grown to confluence using phenol-free EGM-2 medium supplemented with 5% fetal bovine serum at 37° C., 5% CO2. Cells were passaged twice-weekly using 0.5% trypsin/EDTA, and experiments were performed on cells from passages 4-10. Aldosterone (Steraloids) and ET-1 (1-100 nM) (Sigma-Aldrich) were dissolved in dimethylsufloxide (10 nmol/L) and deoxygenated water, respectively, which served as vehicle controls. Cells were treated with aldosterone (10^−−10^−7 mol/L) for 24 h and in selected experiments co-incubated with the mineralocorticoid receptor inhibitor spironolactone (10 μM/l) (Sigma-Aldrich).

eNOS = eNOS activity ([14C] arginine, NOS activity kit) in HPAECs; type: cell-based, human; conditions: ET-1 (10 nM) stimulated HPAECs, without or with aldosterone; n=3
Experimental: eNOS activity. eNOS activity was measured using the NOS activity kit (Cayman) according to the manufacturer's instructions with some modifications. Cells were washed with PBS containing 1 mM EDTA, transferred to a microcentrifuge tube, and centrifuged at 14,000×g at 4° C. for 2 min. The supernatant was decanted and homogenization buffer (250 mM Tris-HCl, pH 7.4, 6 μM BH4, 2 μM flavin adenine dinucleotide, and 2 μM flavin adenine mononucleotide) was added to the cell pellets. […] The samples were then centrifuged at 14,000×g for 30 seconds and radioactivity of the eluant was quantified in a liquid scintillation counter (Beckman-Coulter).

HPAECs [5] = assay: 3-Nitrotyrosine immunohistochemistry in HPAECs; type: cell-based, human; conditions: V 24.1±3.3, n=5
Experimental: 3-Nitrotyrosine immunohistochemistry. Cells grown to confluence on glass chamber slides were fixed following treatments and anti-3-nitrotyrosine immunohistochemistry (Santa Cruz Biotechnology) was performed using the 3,3′-diaminobenzidine substrate method (Vector laboratories) as described previously.^1

HPAECs [6] = assay: Aldosterone levels in HPAEC culture medium by enzyme immunoassay; type: cell-based, human; conditions: 24 h, n=4
[7] = test system: PGC-1α and steroidogenesis factor-1 (SF); assay: PGC-1α and SF protein expression in HPAECs by Western analysis; type: cell-based, human; conditions: for PGC-1α protein expression levels: 24 h, n=3
Experimental: as §1, §2

[8] = test system: PGC-1α / steroidogenesis factor-1 (SF); assay: Co-immunoprecipitation of PGC-1α with SF in HPAECs; type: cell-based, human; conditions: ET-1 10 nM, 24 h, n=3
Experimental: Co-immunoprecipitation of proteins. Cell monolayers were washed twice with ice-cold PBS and incubated on ice with RIPA buffer supplemented with various protease inhibitors (Millpore). Cells were scraped with a rubber policeman and samples were rotated at 4° C. for 15 min. Lysates were centrifuged at 14,000×g at 4° C. for 15 min and the then pre-cleared with a 50% slurry of Protein G agarose beads (Santa Cruz Biotechnology) mixed with PBS. Following removal of the beads by centrifugation, cell lysates were incubated with an anti-ETB or anti-PGC-1α antibody (Santa Cruz Biotechnology) overnight at 4° C. The immunocomplex was captured by incubating lysates with 50% Protein G agarose bead slurry at 4° C. for 1 h. Beads were collected by pulse centrifugation, resuspended in non-reducing sample buffer, and then boiled for 10 min to dissociate the immunocomplex from the beads. Western analysis was performed with an anti-SF (Santa Cruz) or anti-sulfenic acid (R—SOH) antibody (Millpore) as described above.

[9] = test system: ETB-dependent NO. synthesis in COS-7 cells; assay: ETB-dependent NO2− formation in transfected COS-7 cells after H2O2; type: cell-based, monkey (African green monkey); conditions: COS-7 cells co-expressing WT-eNOS; H2O2 200 μmol/L 60 min, then ET-1 10 nM 10 min; n=4
Experimental: NO. metabolites. Nitrite (NO2^−) and nitrate (NO3^−) were measured in cell culture medium containing 2% fetal bovine serum and L-arginine (1 mmol/l) (Sigma-Aldrich) by 1(H)-naphthotriazole fluorescence (Cayman) as previously reported.^1 To measure NO2^− levels in whole lung tissue, lung specimens were harvested from rats and snap frozen in liquid nitrogen. Samples were thawed, homogenized in PBS (pH 7.4), and centrifuged at 14,000×g at 4° C. for 20 min. The supernatant was ultrafiltered using a 30 kDa molecular weight filter (Millpore), and the eluant was used to measure NO2^− levels according to manufacturer's instructions (Cayman).
Site-directed mutagenesis and transfection. cDNAs encoding wild type (WT) eNOS and WT-ETB from human were cloned into the mammalian expression vector pCMV6 (Origene). The C405A-ETB mutant was purchased from Genewiz (South Plainfield, N.J.). […] After this time, the medium was replaced with Dulbecco's Modified Eagle Medium (Gibco) supplemented with 10% FBS, and experiments were performed after 24 h.

ETB = target: T1, ETB (Homo sapiens, UniProt P24530); assay: Disulfide bond formation of ETB in transfected COS-7 cells exposed to H2O2; type: cell-based; conditions: H2O2 200 μmol/L for 20 min
T1 construct: host or cells: COS-7
T1 sequence (P24530 27-442): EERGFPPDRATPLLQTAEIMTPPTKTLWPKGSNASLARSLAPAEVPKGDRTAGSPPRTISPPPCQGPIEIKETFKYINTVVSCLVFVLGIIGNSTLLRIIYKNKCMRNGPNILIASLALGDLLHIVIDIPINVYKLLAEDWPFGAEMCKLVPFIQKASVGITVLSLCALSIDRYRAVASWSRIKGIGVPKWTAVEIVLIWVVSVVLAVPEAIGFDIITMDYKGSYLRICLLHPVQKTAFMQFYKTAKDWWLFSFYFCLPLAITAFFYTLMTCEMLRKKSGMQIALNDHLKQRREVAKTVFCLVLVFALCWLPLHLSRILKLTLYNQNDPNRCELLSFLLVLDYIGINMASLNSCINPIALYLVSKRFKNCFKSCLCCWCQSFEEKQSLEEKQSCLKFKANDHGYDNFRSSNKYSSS
Experimental: Western analysis to detect ETB disfulfide bond formation. Western analysis to detect ETB disulfide bond formation was performed as described previously.^7 Briefly, protein extracts from cells were lysed in alkylating buffer containing 0.1 M Tris-HCL, pH 6.8, 1% SDS, 100 mM iodoacetamide, and 100 mM N-ethylmaleimide, and sonicated on ice for 5 min followed by a 30-min incubation at 25° C. Alkylated proteins were then precipitated with acetone. Proteins were resuspended in 50 μl of 0.1 M Tris-HCl, pH 7.4, 1% SDS; and disulfides were reduced with 5 mM tris(2-carboxyethyl)phosphine hydrochloride (TCEP). Following a 20-min incubation at 25° C., TCEP was removed with a Micro Bio-Spin™ column 6 (Bio-Rad), and 1% SDS was added to the eluant. The cysteines previously participating in a disulfide bond, now reduced, were labeled with 1 mM polyethylene glycol-conjugated maleimide (molecular mass 10 kDa) (Fluka). After a 1-h incubation at 25° C., proteins were precipitated with acetone, resuspended in 50 μl of non-reducing SDS electrophoresis buffer, and boiled for 10 min. Protein samples were then size-fractionated electrophoretically using SDS-PAGE, and transferred to a polyvinylidene fluoride membrane. […]

Q: `Cc1cc(C)c(/C=C2\C(=O)Nc3ccccc32)[nH]1` [SU-5416] was tested. Which “increase in plasma aldosterone levels” value [1] did it give?
A: 418%

Q: endothelin-1 [ET-1] was tested. Which “H2O2 levels compared to V-treated cells” value (HPAECs [2]) did it give?
A: no effect

Q: And the “SF binding to the CYP11B2 promoter” value (CYP11B2 promoter)?
A: 61.6±9.3 arb. units

Q: What about the “CYP11B2 protein expression levels” value ([3]; ET-1 1 nM) of the same molecule?
A: 157.3±27.5 % control

Q: What about the “CYP11B2 protein expression levels” value ([3]; ET-1 10 nM) of the same molecule?
A: 180.4±13.4 % control

Q: And the “CYP11B2 protein expression levels” value ([3]; ET-1 100 nM)?
A: 234.8±4.3 % control

Q: And the “NO2^− generation” value ([4]; ET-1 10 nM, maximum effect at 10 min, HPAECs, vs V 29.4±3.6, n=3)?
A: 139.4±31.8 μM/μg protein

Q: What about the “total NO. metabolite (NOx: NO2^−+NO3^−) formation” value ([4]; ET-1 (10 nM) stimulated HPAECs, without or with aldosterone, n=3) of the same molecule?
A: 157.9±12.7 μM/μg protein

Q: And the “NO2^−/NO3^− ratio compared to V” value ([4]; ET-1 alone, HPAECs)?
A: did not affect

Q: What about the eNOS activity (eNOS) of the same molecule?
A: 18.5±3.5 [^14C] L-citrulline c.p.m./μg protein

Q: And the “levels of 3-nitrotyrosine” value (HPAECs [5])?
A: 31.2±3.2 arb. units

Q: And the “aldosterone levels in the cell culture medium” value (HPAECs [6]; ET-1 1 nM)?
A: 241.1±44.8 % control

Q: What about the “aldosterone levels in the cell culture medium” value (HPAECs [6]; ET-1 10 nM) of the same molecule?
A: 283.5±94.7 % control

Q: And the “aldosterone levels in the cell culture medium” value (HPAECs [6]; ET-1 100 nM)?
A: 396.0±116.5 % control

Q: And the “PGC-1α protein expression levels” value ([7]; ET-1 1 nM)?
A: 176.5±52.8 % control

Q: What about the “PGC-1α protein expression levels” value ([7]; ET-1 10 nM) of the same molecule?
A: 224.7±68.1 % control

Q: And the “PGC-1α protein expression levels” value ([7]; ET-1 100 nM)?
A: 296.7±145.8 % control

Q: And the SF protein levels ([7]; ET-1, 24 h)?
A: no effect

Q: What about the “association between PGC-1α and SF (co-immunoprecipitation)” value [8] of the same molecule?
A: 1260±104 arb. units

B1: WT-ETB: wild type human ETB expressed in COS-7 cells (protein)
chain: T1 sequence (P24530 27-442)
Q: What does the source list for B1?
A: decrease of ET-1-stimulated NO2^− formation by H2O2 compared to V-treated cells [9]: 78.0%; disulfide bond formation of ETB (ETB): formation of one or two disulfide bonds; also recorded: formation of 1 or 2 disulfide bonds

B2: C405A-ETB (protein)
chain: T1 sequence (P24530 27-442) with C379A
Q: For B2, which “decrease of ET-1-stimulated NO2^− formation by H2O2 compared to V-treated cells” value [9] is on record?
A: 45.0%

Q: And the “disulfide bond formation of ETB” value (ETB)?
A: resistant to the formation of disulfide bonds; also recorded: resistant to disulfide bond formation
